Measured values taken from PubChem BioAssay AID1259353.

test system: Trichuris muris adults ex vivo, motility imaging, 24 h; assay: whipworm adult movement reduction ex vivo – whole organism, INVAPP motility imaging, 24 h, dose response (AID 1259353);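 active = compounds giving a statistically significant drop in adult whipworm motility versus solvent-only wells; inactive = the rest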

EC50, active:
COCCNc1nc(NCCOc2ccccc2Cl)c2sccc2n1 26 µM
COc1ccccc1CNc1nc(NCCOc2ccccc2Cl)c2sccc2n1 70 µM
CNc1nc(NCCOc2ccccc2)c2sccc2n1 28 µM
CNc1nc(NCCOc2ccccc2Cl)c2sccc2n1 44 µM
